We go through one compound from patent US20220409692A1, “Systems Chemico-Pharmacology Drugs and Methods of Use” (The Medical College of Wisconsin, priority 2019, published 2022).

Peptide text beside a SMILES is read from it.

Data set [1] concerns the target T1, MPO (Homo sapiens, UniProt P05164).
T1 sequence (P05164 49-745): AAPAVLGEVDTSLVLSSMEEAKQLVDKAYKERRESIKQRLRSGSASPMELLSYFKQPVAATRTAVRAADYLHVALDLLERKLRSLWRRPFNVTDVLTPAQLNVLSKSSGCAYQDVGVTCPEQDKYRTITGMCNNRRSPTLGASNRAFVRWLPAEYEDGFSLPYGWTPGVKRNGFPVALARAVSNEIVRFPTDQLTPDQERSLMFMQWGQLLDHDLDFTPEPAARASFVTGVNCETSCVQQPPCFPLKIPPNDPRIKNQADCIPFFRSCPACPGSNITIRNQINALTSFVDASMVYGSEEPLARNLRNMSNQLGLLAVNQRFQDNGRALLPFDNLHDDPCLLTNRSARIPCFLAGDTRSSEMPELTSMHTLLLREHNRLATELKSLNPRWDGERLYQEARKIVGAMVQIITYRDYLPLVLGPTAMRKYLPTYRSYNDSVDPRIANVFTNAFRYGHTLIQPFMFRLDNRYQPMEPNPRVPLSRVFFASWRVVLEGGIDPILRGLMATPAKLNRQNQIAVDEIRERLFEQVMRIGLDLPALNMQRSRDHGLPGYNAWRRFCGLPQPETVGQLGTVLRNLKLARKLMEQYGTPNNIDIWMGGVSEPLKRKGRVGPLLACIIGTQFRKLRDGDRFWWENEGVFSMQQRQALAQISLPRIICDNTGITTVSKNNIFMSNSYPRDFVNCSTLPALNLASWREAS
Kind of data set: KYC/AA(n) peptide inhibition of MPO HOCl production (TMB assay) at varied pH. Format: biochemical. The text has this:
Small peptides of generic formula AA(n) (where AA represents different amino acids, and n can be 2-5) are both substrates and inhibitors of MPO (alternatively, inhibitors of EPO). These peptides are […] at the active site of MPO, which subsequently decreases the production of toxic oxidants that includes but not restricted to hypochlorous acid. All MPO activities (i.e., hypochlorous acid production) described herein were quantified by the 3,3′,5,5′-tetramethylbenzidine (TMB) assay. […] The free radical itself may act as an activated species, and is stable enough to react with proximal proteins, peptides, metabolites or small molecules to effect further change. The free radical is not limited to a single target, but may effect change multiple independent targets. In a non-limiting example, the free radical goes on to form a hetero- or homo dimer via an oxidized —S—S— disulfide (or di-Selenium) linkage. Finally, the more interactions between the peptide and active site of MPO that occurs the lower numerical IC50 value of the peptide inhibitor.
KYZ is […] in the presence of MPO, which subsequently decreases the production of hypochlorous acid. All MPO activities (i.e., hypochlorous acid production) were quantified by the 3,3′,5,5′-tetramethylbenzidine (TMB) assay. The tripeptide KXZ, requires amino acid #1 (AA1, K) to be a native amino acid or an artificial amino acid (aa) with a basic side-chain such as an amine functional group (e.g., Lysine (K)). Amino acid #2 (AA2, X) is a native or artificial amino acid that may contain a polar, non-polar, or aromatic amino acid.

For data set [2], the system named is control mice. The experiment in a line: Increasing single IP doses of KYC in control mice. The data set is classed as in vivo, mouse. The note with it: unpublished, personal observations.
In data set [3] the test system is adult mice. The experiment in a line: Review of KYC doses in previous studies in adult mice. The data set is classed as in vivo, mouse. The note with it: 15 mg/kg twice per day vs 800 mg/kg. How it is done: No KYC dose-response studies were performed in neonatal rat pups in preparation for the current study. Instead, we decided to treat neonatal rat pups empirically with KYC at 5 mg/kg twice per day based on published and unpublished data in adult mice. […] The dose of KYC used in the current study is based on our experience in treating chronic inflammation in other disease states and is within the range that we consider appropriate for neonatal rat pups and adult rats.

For data set [4], the system named is cultured endothelial cells. The note with it: added to culture media; cited from earlier work.
Data set [5] addresses T1, MPO. Kind of data set: MPO oxidation of KYC to thiyl radical, ESR with DMPO. The data set is classed as biochemical. The note with it: MPO 120 nM, H2O2 50 μM, KYC 30 μM. How it is done:
FIG. 30. MPO Oxidizes KYC to a KYC Thiyl Radical That Thiylates HMGB1. (A) ESR spectrum of KYC thiyl S°-DMPO generated by an MPO reaction mixture containing MPO (120 nM), H2O2 (50 μM) and KYC (30 μM). (B) Streptavidin-affinity blot of KYC thiylated HMGB1 and MPO in a split sample, one half treated neat and other half treated with DTT (100 mM) to reduce disulfide bonds.
This spectrum is similar to the spectrum of DMPO-S◯-YC generated when the dipeptide YC was added to an MPO reaction mixture containing DMPO [34].

Turning to `CC(=O)N[C@@H](CCCCN)C(=O)N[C@@H](Cc1ccc(O)cc1)C(=O)N[C@@H](CS)C(N)=O` [KYC, N-acetyl lysyltyrosylcysteine amide] (Ac-Lys-Tyr-Cys-NH2), in data set [1] (pH values of 6.5, 7.4 and 8.0), the “IC50 values compared with KLC” value is given as “superior”. Besides, the “IC50 values, inhibition of MPO HOCl production” value in data set [1] (varied pH) is recorded as “changing of pH has limited effect on the IC50 values”. Further, the “single dose at which observable adverse effects were induced” value in data set [2] turned out to be 800 mg/kg. The “factor by which the higher dose is below the KYC level observed to induce adverse effects” value in data set [3] is “more than 26 times”. The “concentration with little to no effect on endothelial cell viability, apoptosis, necrosis, or mitochondrial function” value in data set [4] is given as “up to 4000 μM”. Further, in data set [5], the “ESR spectrum of MPO reaction mixture with DMPO” value was “four-line ESR spectrum corresponding to DMPO-SO-KYC”.
